Reference: ChEMBL document CHEMBL6109066, “Synthesis, cytotoxic evaluation, and molecular docking of novel zerumbone oxime esters and azazerumbone derivatives” (Bioorg Med Chem Lett, 2025)
Converted amounts (≈) assume the structure as drawn.

What was measured:
Format in all cases: functional, cell-based
A549 = experiment: Cytotoxicity against human A549 cells
AGS = experiment: Cytotoxicity against human AGS cells
HL-60 = experiment: Cytotoxicity against human HL-60 cells
HepG2 = experiment: Cytotoxicity against human HepG2 cells

Structure (SMILES)	IC50 (A549)	IC50 (AGS)	IC50 (HL-60)	IC50 (HepG2)
C/C1=C\CC(C)(C)/C=C/C(=O)/C(C)=C/CC1 [ZERUMBONE]	1.03 µg/mL (≈ 4.72 µM)	1.11 µg/mL (≈ 5.08 µM)	0.86 µg/mL (≈ 3.94 µM)	0.93 µg/mL (≈ 4.26 µM)
CC(=O)N1C(=O)/C=C/C(C)(C)C/C=C(\C)CC/C=C/1C	44.1 µg/mL (≈ 160 µM)	9.02 µg/mL (≈ 32.8 µM)	4.5 µg/mL (≈ 16.3 µM)	32.9 µg/mL (≈ 120 µM)
C/C1=C\CC(C)(C)/C=C/C(=N/OC(=O)[C@H](NC(=O)OC(C)(C)C)C(C)(C)C)C(/C)=C/CC1	1.37 µg/mL (≈ 3.07 µM)	1.5 µg/mL (≈ 3.36 µM)	0.41 µg/mL (≈ 0.918 µM)	1.15 µg/mL (≈ 2.57 µM)
C/C1=C\CC(C)(C)/C=C/C(=N/OC(=O)c2cccc(Cl)c2)C(/C)=C/CC1	52.9 µg/mL (≈ 142 µM)	38.3 µg/mL (≈ 103 µM)	10.6 µg/mL (≈ 28.5 µM)	14.3 µg/mL (≈ 38.4 µM)
C\C1=C/CC/C(C=O)=C/CC(C)(C)/C=C/C1=N/O	91.8 µg/mL (≈ 371 µM)	53.9 µg/mL (≈ 218 µM)	37.7 µg/mL (≈ 152 µM)	64.1 µg/mL (≈ 259 µM)
C/C1=C\CC(C)(C)/C=C/C(=N/OC(=O)CCl)C(/C)=C/CC1	46.1 µg/mL (≈ 149 µM)	44.6 µg/mL (≈ 144 µM)	9.03 µg/mL (≈ 29.1 µM)	37.5 µg/mL (≈ 121 µM)
C/C1=C\CC(C)(C)/C=C/C(=N/OC(=O)[C@H](NC(=O)OC(C)(C)C)C(C)C)C(/C)=C/CC1	2.01 µg/mL (≈ 4.65 µM)	3.21 µg/mL (≈ 7.42 µM)	3.88 µg/mL (≈ 8.97 µM)	1.59 µg/mL (≈ 3.68 µM)
C/C1=C\CC(C)(C)/C=C/C(=N/OC(=O)c2ccc([N+](=O)[O-])cc2)C(/C)=C/CC1	9.28 µg/mL (≈ 24.3 µM)	6.66 µg/mL (≈ 17.4 µM)	9.88 µg/mL (≈ 25.8 µM)	4.61 µg/mL (≈ 12.1 µM)
COc1cc(C(=O)O/N=C2/C=C/C(C)(C)C/C=C(\C)CC/C=C/2C)ccc1OC(C)=O	15.6 µg/mL (≈ 36.8 µM)	10 µg/mL (≈ 23.5 µM)	10.7 µg/mL (≈ 25.2 µM)	7.41 µg/mL (≈ 17.4 µM)
C/C1=C\CC(C)(C)/C=C/C(=N/OC(=O)c2cccc([N+](=O)[O-])c2)C(/C)=C/CC1	58.9 µg/mL (≈ 154 µM)	41.8 µg/mL (≈ 109 µM)	29.8 µg/mL (≈ 77.8 µM)	30.4 µg/mL (≈ 79.5 µM)
C/C1=C\CC(C)(C)/C=C/C(=O)[C@H](C)[C@H](Nc2ccc(Cl)cc2)CC1	> 100 µg/mL	> 100 µg/mL	53.7 µg/mL (≈ 155 µM)	56.2 µg/mL (≈ 163 µM)
C#CCN[C@@H]1CC/C(C)=C/CC(C)(C)/C=C/C(=O)[C@@H]1C	32.2 µg/mL (≈ 118 µM)	11.5 µg/mL (≈ 42 µM)	9.59 µg/mL (≈ 35.1 µM)	6.52 µg/mL (≈ 23.8 µM)
C/C1=C\CC(C)(C)/C=C/C(=N/OC(=O)c2ccccc2)C(/C)=C/CC1	14.3 µg/mL (≈ 42.3 µM)	10.5 µg/mL (≈ 31.3 µM)	6.63 µg/mL (≈ 19.6 µM)	3.64 µg/mL (≈ 10.8 µM)
Cc1c2ccncc2c(C)c2c1[nH]c1ccccc12 [ELLIPTECINE]	0.39 µg/mL (≈ 1.58 µM)	0.4 µg/mL (≈ 1.62 µM)	0.35 µg/mL (≈ 1.42 µM)	0.33 µg/mL (≈ 1.34 µM)
C/C1=C\CC(C)(C)/C=C/C(=N/OC(=O)c2ccccc2O)C(/C)=C/CC1	12 µg/mL (≈ 34 µM)	9.04 µg/mL (≈ 25.6 µM)	3.99 µg/mL (≈ 11.3 µM)	4.2 µg/mL (≈ 11.9 µM)
C/C1=C\CC(C)(C)/C=C/C(=N/O)C(/C)=C/CC1	> 100 µg/mL	> 100 µg/mL	45.5 µg/mL (≈ 195 µM)	> 100 µg/mL
CC(=O)O/N=C1/C=C/C(C)(C)C/C=C(\C)CC/C=C/1C	30.8 µg/mL (≈ 112 µM)	23.8 µg/mL (≈ 86.3 µM)	11 µg/mL (≈ 39.9 µM)	18.5 µg/mL (≈ 67.3 µM)
C/C1=C\CC(C)(C)/C=C/C(=N/OC(=O)c2ccc(Br)cc2)C(/C)=C/CC1	40.8 µg/mL (≈ 97.9 µM)	27.3 µg/mL (≈ 65.6 µM)	15.4 µg/mL (≈ 36.9 µM)	12.2 µg/mL (≈ 29.4 µM)
CC(=O)Oc1ccc(C(=O)O/N=C2/C=C/C(C)(C)C/C=C(\C)CC/C=C/2C)cc1	10.9 µg/mL (≈ 27.5 µM)	9.37 µg/mL (≈ 23.7 µM)	3.55 µg/mL (≈ 8.98 µM)	5.87 µg/mL (≈ 14.8 µM)
COc1ccc(C(=O)O/N=C2/C=C/C(C)(C)C/C=C(\C)CC/C=C/2C)cc1	1.52 µg/mL (≈ 4.14 µM)	1.93 µg/mL (≈ 5.25 µM)	1.43 µg/mL (≈ 3.89 µM)	1.42 µg/mL (≈ 3.86 µM)
C/C1=C\CC(C)(C)/C=C/C(=O)N/C(C)=C/CC1	56.9 µg/mL (≈ 244 µM)	39.6 µg/mL (≈ 170 µM)	9.84 µg/mL (≈ 42.2 µM)	27.4 µg/mL (≈ 117 µM)
